Reference: patent publication US20190105367A1, “ANTIMICROBIAL 4-OXOQUINOLIZINES” (Emergent Product Development Gaithersburg Inc., priority 2011, published 2019)

Tests used:
[1] = system: A. baumannii A489; assay: MIC without and with sub-inhibitory polymyxin B (Example 4); type: cell-based, Acinetobacter baumannii; details: A. baumannii A489
[2] = system: A. baumannii A401; assay: Preliminary MBC without and with sub-inhibitory polymyxin B (Example 4); type: cell-based, Acinetobacter baumannii; details: for MBC: 2nd experiment
[3] = system: A. baumannii A329; assay: as above; type: cell-based, Acinetobacter baumannii; details: for MBC: 2nd experiment
[4] = system: A. baumannii NCTC 13301; assay: MIC without and with sub-inhibitory polymyxin B (Example 4); type: cell-based, Acinetobacter baumannii; details: A. baumannii NCTC 13301, 2nd experiment
[5] = system: A. baumannii A14; assay: Preliminary MBC without and with sub-inhibitory polymyxin B (Example 4); type: cell-based, Acinetobacter baumannii; details: A. baumannii A14, preliminary MBC, 1st experiment
[6] = system: Acinetobacter sp. (H064200250); assay: MIC without and with sub-inhibitory polymyxin B (Example 4); type: cell-based
[7] = system: A. baumannii A473; assay: Preliminary MBC without and with sub-inhibitory polymyxin B (Example 4); type: cell-based, Acinetobacter baumannii; details: for MBC: 2nd experiment
Method in brief: (§1)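 Read-out: the minimum concentration at which colonies were reduced by ca. 90% relative to positive control, usually seen as isolated colonies or a clear plate. Plates had been kept 18-20 hours at 37° C beforehand.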

[8] = system: A. baumannii A14; assay: as above; type: cell-based, Acinetobacter baumannii; details: 2nd experiment
Method in brief: as §1

[9] = system: A. baumannii NCTC 13301; assay: as above; type: cell-based, Acinetobacter baumannii; details: A. baumannii NCTC 13301, preliminary MBC; for MBC: 2nd experiment
Method in brief: as §1

[10] = system: A. baumannii A390; assay: as above; type: cell-based, Acinetobacter baumannii; details: for MBC: 2nd experiment
Method in brief: as §1

[11] = system: A. baumannii A387; assay: as above; type: cell-based, Acinetobacter baumannii; details: for MBC: 2nd experiment
[12] = system: A. baumannii A473; assay: MIC without and with sub-inhibitory polymyxin B (Example 4); type: cell-based, Acinetobacter baumannii; details: A. baumannii A473
[13] = system: A. baumannii J2; assay: as above; type: cell-based, Acinetobacter baumannii; details: A. baumannii J2
[14] = system: A. baumannii A401; assay: as above; type: cell-based, Acinetobacter baumannii; details: A baumannii A 401; for MIC: 2nd experiment
[15] = system: A. baumannii J2; assay: Preliminary MBC without and with sub-inhibitory polymyxin B (Example 4); type: cell-based, Acinetobacter baumannii; details: A. baumannii J2, preliminary MBC; for MBC: 2nd experiment
[16] = system: A. baumannii A387; assay: MIC without and with sub-inhibitory polymyxin B (Example 4); type: cell-based, Acinetobacter baumannii; details: A. baumannii A387
[17] = system: Acinetobacter sp. (H064200250); assay: Preliminary MBC without and with sub-inhibitory polymyxin B (Example 4); type: cell-based; details: preliminary MBC; for MBC: Acinetobacter spp. H064200250 (OXA51), 2nd experiment
Method in brief: as §1

[18] = system: A. baumannii A14; assay: MIC without and with sub-inhibitory polymyxin B (Example 4); type: cell-based, Acinetobacter baumannii; details: 1st experiment
[19] = system: A. baumannii A329; assay: as above; type: cell-based, Acinetobacter baumannii; details: A. baumannii A329
[20] = system: A. baumannii A489; assay: Preliminary MBC without and with sub-inhibitory polymyxin B (Example 4); type: cell-based, Acinetobacter baumannii; details: A. baumannii A489, preliminary MBC; for MBC: 2nd experiment
[21] = system: A. baumannii ATCC 19606; assay: MIC without and with sub-inhibitory polymyxin B (Example 4); type: cell-based, Acinetobacter baumannii; details: A. baumannii ATCC 19606
[22] = system: A. baumannii NCTC 13301; assay: as above; type: cell-based, Acinetobacter baumannii; details: A. baumannii NCTC 13301, 1st experiment
[23] = system: A. baumannii ATCC 19606; assay: Preliminary MBC without and with sub-inhibitory polymyxin B (Example 4); type: cell-based, Acinetobacter baumannii; details: for MBC: 2nd experiment
[24] = +[…] polymyxin B, 1st experiment
[25] = without polymyxin B, 1st experiment
[26] = Acinetobacter spp. H064200250 (OXA51), +[…] PB, 2nd experiment
[27] = Acinetobacter spp. H064200250, +[…] polymyxin B, 1st experiment
[28] = Acinetobacter spp. H064200250, without polymyxin B, 1st experiment
[29] = +0.06 μg/ml polymyxin B, 1st experiment
[30] = ratio, PB 0.06 μg/ml, 1st experiment

Substance: Polymyxin B [reference compound]
- MIC ([1]; +[…] PB, 2nd experiment): 0.25 µg/mL
- MIC without PB/MIC + PB ([1]; +[…] PB, 2nd experiment): 2
- MIC +[…] PB [1, 24]: 1 µg/mL
- MIC without PB/MIC + PB ([1]; ratio, PB […], 1st experiment): 2
- MIC ([1]; without PB, 2nd experiment): 0.5 µg/mL
- MIC without PB [1, 25]: 2 µg/mL
- MBC ([2]; A baumannii A 401, +0.06 μg/ml PB): 0.25 µg/mL
- MBC +0.06 μg/ml PB ([2]; A baumannii A 401, +0.06 μg/ml polymyxin B, 1st experiment): 0.5 µg/mL
- MBC ([2]; A baumannii A 401, without PB): 0.5 µg/mL
- MBC without PB ([2]; A baumannii A 401, without polymyxin B, 1st experiment): 1 µg/mL
- MBC ([3]; A. baumannii A329, +0.06 μg/ml PB): 0.25 µg/mL
- MBC ([3]; A. baumannii A329, without PB): 0.25 µg/mL
- MBC without PB ([3]; A. baumannii A329, without polymyxin B, 1st experiment): 0.5 µg/mL
- MIC ([4]; +[…] PB): ≤ 0.125 µg/mL
- MIC without PB/MIC + PB ([4]; +[…] PB): ≥2
- MIC ([4]; +[…] PB, value in parentheses marked *, mark not explained): 0.25 µg/mL
- MIC ([4]; without PB): 0.25 µg/mL
- MBC +0.06 μg/ml PB ([5]; +0.06 μg/ml polymyxin B): 0.5 µg/mL
- MBC without PB ([5]; without polymyxin B): 0.5 µg/mL
- MIC [6, 26]: 0.25 µg/mL
- MIC without PB/MIC + PB [6, 26]: 1
- MIC ([6]; Acinetobacter spp. H064200250 (OXA51), without PB, 2nd experiment): 0.25 µg/mL
- MIC +[…] PB [6, 27]: 0.25 µg/mL
- MIC without PB/MIC + PB ([6]; Acinetobacter spp. H064200250, ratio, PB […], 1st experiment): 2
- MIC without PB [6, 28]: 0.5 µg/mL
- MBC ([7]; A. baumannii A473, +0.06 μg/ml PB): 0.25 µg/mL
- MBC ([7]; A. baumannii A473, without PB): 0.25 µg/mL
- MBC without PB ([7]; A. baumannii A473, without polymyxin B, 1st experiment): 1 µg/mL
- MBC ([8]; A. baumannii A14, +0.06 μg/ml PB): 0.25 µg/mL
- MBC ([8]; A. baumannii A14, without PB): 0.25 µg/mL
- MBC ([9]; +[…] PB): ≤0.125 µg/mL
- MBC +[…] PB [9, 24]: 0.5 µg/mL
- MBC ([9]; without PB): 0.25 µg/mL
- MBC without PB [9, 25]: 0.5 µg/mL
- MBC ([10]; A. baumannii A390, +0.06 μg/ml PB): ≤0.125 µg/mL
- MBC ([10]; A. baumannii A390, without PB): 0.25 µg/mL
- MBC without PB ([10]; A. baumannii A390, without polymyxin B, 1st experiment): 0.25 µg/mL
- MBC ([11]; A. baumannii A387, +0.06 μg/ml PB): 0.25 µg/mL
- MBC +0.06 μg/ml PB ([11]; A. baumannii A387, +0.06 μg/ml polymyxin B, 1st experiment): 0.25 µg/mL
- MBC ([11]; A. baumannii A387, without PB): 0.25 µg/mL
- MBC without PB ([11]; A. baumannii A387, without polymyxin B, 1st experiment): 0.25 µg/mL
- MIC ([12]; +0.06 μg/ml PB, 2nd experiment): 0.25 µg/mL
- MIC without PB/MIC + PB ([12]; +0.06 μg/ml PB, 2nd experiment): 1
- MIC ([12]; without PB, 2nd experiment): 0.25 µg/mL
- MIC read with alamar blue ([12]; without PB, value in parentheses, 2nd experiment): 2 µg/mL
- MIC without PB [12, 25]: 1 µg/mL
- MIC ([13]; +[…] PB, 2nd experiment): ≤0.125 µg/mL
- MIC without PB/MIC + PB ([13]; +[…] PB, 2nd experiment): ≥4
- MIC +[…] PB [13, 24]: 0.5 µg/mL
- MIC without PB/MIC + PB ([13]; ratio, PB […], 1st experiment): 1
- MIC ([13]; without PB, 2nd experiment): 0.5 µg/mL
- MIC without PB [13, 25]: 0.5 µg/mL
- MIC ([14]; +0.06 μg/ml PB): 0.25 µg/mL
- MIC +0.06 μg/ml PB [14, 29]: 0.5 µg/mL
- MIC without PB/MIC + PB [14, 30]: 2
- MIC ([14]; without PB): 0.5 µg/mL
- MIC without PB [14, 25]: 1 µg/mL
- MBC ([15]; +[…] PB): ≤0.125 µg/mL
- MBC +[…] PB [15, 24]: 0.5 µg/mL
- MBC ([15]; without PB): 0.5 µg/mL
- MBC without PB [15, 25]: 0.5 µg/mL
- MIC ([16]; +0.06 μg/ml PB, 2nd experiment): ≤ 0.125 µg/mL
- MIC without PB/MIC + PB ([16]; +0.06 μg/ml PB, 2nd experiment): ≥2
- MIC read with alamar blue ([16]; +0.06 μg/ml PB, value in parentheses, 2nd experiment): 0.25 µg/mL
- MIC +0.06 μg/ml PB [16, 29]: 0.25 µg/mL
- MIC without PB/MIC + PB [16, 30]: 1
- MIC ([16]; without PB, 2nd experiment): 0.25 µg/mL
- MIC without PB [16, 25]: 0.25 µg/mL
- MBC ([17]; +[…] PB): 0.25 µg/mL
- MBC ([17]; without PB): 0.25 µg/mL
- MBC +[…] PB [17, 27]: 0.5 µg/mL
- MBC without PB [17, 28]: 0.5 µg/mL
- MIC +0.06 μg/ml PB ([18]; +0.06 μg/ml polymyxin B): 0.5 µg/mL
- MIC without PB/MIC + PB ([18]; ratio, PB 0.06 μg/ml): 1
- MIC without PB ([18]; without polymyxin B): 0.5 µg/mL
- MIC ([19]; +0.06 μg/ml PB, 2nd experiment): 0.25 µg/mL
- MIC without PB/MIC + PB ([19]; +0.06 μg/ml PB, 2nd experiment): 1
- MIC ([19]; without PB, 2nd experiment): 0.25 µg/mL
- MIC without PB [19, 25]: 0.5 µg/mL
- MBC ([20]; +[…] PB): 0.25 µg/mL
- MBC +[…] PB [20, 24]: 1 µg/mL
- MBC ([20]; without PB): 0.5 µg/mL
- MBC without PB [20, 25]: 2 µg/mL
- MIC ([21]; +0.06 μg/ml PB, 2nd experiment): 0.25 µg/mL
- MIC without PB/MIC + PB ([21]; +0.06 μg/ml PB, 2nd experiment): 2
- MIC +0.06 μg/ml PB [21, 29]: 0.5 µg/mL
- MIC without PB/MIC + PB [21, 30]: 1
- MIC ([21]; without PB, 2nd experiment): 0.5 µg/mL
- MIC without PB [21, 25]: 0.5 µg/mL
- MIC +[…] PB ([22]; +[…] polymyxin B): 1 µg/mL
- MIC without PB/MIC + PB ([22]; ratio, PB […]): 0.5
- MIC without PB ([22]; without polymyxin B): 0.5 µg/mL
- MBC ([23]; A. baumannii ATCC 19606, +0.06 μg/ml PB): 0.25 µg/mL
- MBC +0.06 μg/ml PB ([23]; A. baumannii ATCC 19606, +0.06 μg/ml polymyxin B, 1st experiment): 0.5 µg/mL
- MBC ([23]; A. baumannii ATCC 19606, without PB): 0.5 µg/mL
- MBC without PB ([23]; A. baumannii ATCC 19606, without polymyxin B, 1st experiment): 0.5 µg/mL
